{
  "source": "patent US20220313620A1",
  "about": "“COMPOSITION FOR PREVENTING AND TREATING TAUOPATHIES” (SERVICIO ANDALUZ DE SALUD, priority 2019, published 2022)",
  "key": {"insulin": {"system": "insulin", "test": "Plasma insulin (ELISA) and HOMA insulin resistance index after acute oral gavage", "type": "in vivo", "conditions": "adult male Wistar rats", "description": "The protocol was approved by the Ethics Committee for Animal Experiments of the University of Malaga.\nD-Pinitol (3-0-methyl-D-chiro-inositol) was generously provided by EURONUTRA SL (https://www.euronutra.com/, Malaga, Spain), in the form of crystalline fine powder (lot: PPN-M0201). For acute treatments, D-Pinitol was dissolved in water to be administered by gavage (orally) at different concentrations (100 mg/Kg and 500 mg/Kg), drug was administered at a volume of 1 ml/kg.\nAfter 18 hours of fasting, D-Pinitol dissolved in water was administered acutely by gavage (100 mg/kg in a first study, and 500 mg/kg in a subsequent study). After administration, the animals were sacrificed in groups at different times (being time 0 the administration of D-Pinitol). For the first study (100 mg/kg), groups of animals were sacrificed at times: 10, 20, 30, 60, 120, 240 and 360 minutes after administration; for the second study (500 mg/kg), animals were sacrificed at times: 60, 120 and 240 minutes after administration. As a control group, a group was administered only with water (by gavage).\nAnimals were anesthetized with sodium pentobarbital (50 mg/Kg, i.p.), blood, brain and liver samples were collected. Blood was centrifuged (2100 g for 8 min, 4° C.) and the plasma kept for further analysis. Liver and brain samples were flash-frozen in liquid N2, then stored at −80° C. until further analysis.\nThe plasma levels of insulin and ghrelin were determined with an enzyme-linked immunosorbent assay (ELISA) method using commercial kits: EMD Millipore Corporation (Billerica, Mass., USA) Cat. #EZRMI-13K and Cat. #EZRGRT-91K, respectively. Glucagon levels in plasma was determined with a Glucagon Enzyme Immunoassay (EIA) Kit: Cat. #RAB0202 Sigma-Aldrich (Saint Louis, Mo., USA). All serum samples were assayed in duplicate within one assay, and results were expressed in terms of the particular standard hormone."}, "mTOR": {"system": "mTOR", "test": "Hypothalamic mTOR phosphorylation (western blot) after acute oral gavage", "type": "in vivo", "conditions": "oral 500 mg/kg, adult male Wistar rats, hypothalamus, FIG. 3F", "description": "After 18 hours of fasting, D-Pinitol dissolved in water was administered acutely by gavage (100 mg/kg in a first study, and 500 mg/kg in a subsequent study). After administration, the animals were sacrificed in groups at different times (being time 0 the administration of D-Pinitol). For the first study (100 mg/kg), groups of animals were sacrificed at times: 10, 20, 30, 60, 120, 240 and 360 minutes after administration; for the second study (500 mg/kg), animals were sacrificed at times: 60, 120 and 240 minutes after administration. As a control group, a group was administered only with water (by gavage). Animals were anesthetized with sodium pentobarbital (50 mg/Kg, i.p.), blood, brain and liver samples were collected. Blood was centrifuged (2100 g for 8 min, 4° C.) and the plasma kept for further analysis. Liver and brain samples were flash-frozen in liquid N2, then stored at −80° C. until further analysis. Brain extract. […] The expression of protein including mTOR (289 kDa) and Adaptin (100 kDa) were analysed by western blot. […] Bands were quantified by densitometric analysis using ImageJ software (Rasband, WS, Image), US National Institutes of Health, Bethesda, Md., USA)."}},
  "data": [
    {"smiles": "COC1[C@@H](O)[C@@H](O)C(O)[C@H](O)[C@H]1O", "note": "(stereo partly drawn) [DPIN, (1S,2S,4S,5R)-6-methoxycyclohexane-1,2,3,4,5-pentol]", "values": [
      {"measurement": "insulin release into the blood circulation", "setting": "insulin; oral 100 mg/kg, FIG. 2B", "value": "decreased"},
      {"measurement": "insulin resistance measured by the HOMA index", "setting": "insulin; oral 100 mg/kg, FIG. 2C", "value": "reduction"},
      {"measurement": "insulin release into the blood circulation", "setting": "insulin; oral 500 mg/kg, FIG. 3B", "value": "decreased"},
      {"measurement": "insulin resistance measured by the HOMA index", "setting": "insulin; oral 500 mg/kg, FIG. 3D", "value": "reduction"},
      {"measurement": "hypothalamic mTOR signaling through its phosphorylation", "setting": "mTOR", "value": "activation"}
    ]}
  ]
}
